Data from publication PMC7541675 (Molecular cancer therapeutics, 2020).
Where two headings read alike, the source gives them in different places.

Columns and labels:
[1] = in vivo
[2] = system: ovarian cancer; details: cited from earlier work
[3] = Pharmacokinetic analyses of paclitaxel and sorafenib in plasma; details: paclitaxel 80 mg/m^2 IV, C1D15 (with sorafenib); for Cmax: human, iv, Cmax mean (SD)
[4] = system: patients with advanced refractory solid tumors
[5] = 200 mg BID; cited from earlier work
[6] = clinical; details: human, in vivo; for Cmax: Cmax mean (SD); for half-life: t1/2 mean (SD)
[7] = system: patients; details: cited from earlier work
[8] = paclitaxel without bevacizumab, AURELIA paclitaxel cohort
[9] = recurrent ovarian cancer patients
[10] = in combination bevacizumab plus sorafenib, previous phase I studies
[11] = bevacizumab added to paclitaxel, AURELIA paclitaxel cohort

CC(=O)O[C@H]1C(=O)[C@@]2(C)[C@H]([C@H](OC(=O)c3ccccc3)[C@]3(O)C[C@H](OC(=O)[C@H](O)[C@@H](NC(=O)c4ccccc4)c4ccccc4)C(C)=C1C3(C)C)[C@]1(OC(C)=O)CO[C@@H]1C[C@@H]2O [paclitaxel]
paclitaxel exposure with concurrent sorafenib (drug interaction) [1]: no significant differences | ORR [2, 8]: 30.2% | OS [2, 8]: 13.2 months | PFS [2, 8]: 3.9 months | Cmax ([3]; cohort 1, sorafenib 200 mg BID 5/7, n=6): 4350 ng/mL | Cmax ([3]; cohorts 2/2 expansion, sorafenib 200 mg BID 7/7, n=13): 3480 ng/mL | Cmax mean (SD) ([3]; cohort 3, sorafenib 400 mg BID 5/7, n=2): 3,804 (1306) ng/mL

CNC(=O)c1cc(Oc2ccc(NC(=O)Nc3ccc(Cl)c(C(F)(F)F)c3)cc2)ccn1 [sorafenib]
Median number of cycles before sorafenib dose reduction to 200 mg QD 5/7 ([4]; human, in vivo): 3 cycles | Patients needing further sorafenib dose reduction to 200 mg QOD ([4]; human, in vivo): 21% | Patients on study ≥ 4 months who had sorafenib dose reductions ([4]; human, in vivo): 76% | Patients requiring further sorafenib dose reduction to 200 mg QD 5/7 ([4]; human, in vivo): 62% | Recommended phase II dose (RP2D) ([4]; human, in vivo): 200 mg BID 5/7 | Maximum tolerated dose (MTD) ([4]; sorafenib oral, with bevacizumab 5 mg/kg Q2W and paclitaxel 80 mg/m^2 QW x 3 every 4 weeks): 200 mg BID 7/7 | t1/2 mean (SD) ([1]; human, po): 6.5 (2.2) h | AUC0–8 mean (SD) ([1]; human, po, 200 mg): 14,911 (8,174) ng*hr/mL | Cmax mean (SD) ([1]; human, po, 200 mg): 4,539 (2,333) ng/mL | ORR, single agent [2, 9]: 3% | OS, single agent [2, 9]: 16 months | PFS, single agent [2, 9]: 2 months | ORR ([2]; sorafenib dosed sequentially with topotecan, TRIAS randomized phase II, platinum-resistant ovarian cancer): 31% | PFS ([2]; sorafenib dosed sequentially with topotecan, TRIAS, p=0.002): 6.7 months | OS ([2]; sorafenib dosed sequentially with topotecan, TRIAS, p=0.017): 17 months | AUC0–8, historical values with sorafenib alone [5]: 6,000–16,000 ng*h/mL | Cmax ([6]; po, 200 mg): 2760 ng/mL | AUC(0-t) ([6]; po, 400 mg, AUC0–8 mean (SD)): 23000 ng·h/mL | Cmax ([6]; po, 400 mg): 3820 ng/mL | half-life ([6]; po, 400 mg): 7.8 h | half-life ([6]; po): 4 h | AUC(0-t) ([6]; sorafenib AUC0–8 in non-responders): 17300 ng·h/mL | AUC(0-t) ([6]; sorafenib AUC0–8 in responders): 38100 ng·h/mL | HFSR incidence expected with monotherapy ([7]; anti-VEGF monotherapy, all grades): 25–50% | grade 3 HFSR incidence expected with monotherapy ([7]; anti-VEGF monotherapy): 10% | maximum tolerated dose (MTD) of sorafenib [7, 10]: 200 mg twice daily (BID)

CC[C@@]1(O)C(=O)OCc2c1cc1n(c2=O)Cc2cc3c(CN(C)C)c(O)ccc3nc2-1 [topotecan]
OS ([2]; topotecan alone, TRIAS): 10 months | PFS ([2]; topotecan alone, TRIAS): 4.4 months

bevacizumab
PFS ([2]; bevacizumab added to chemotherapy, AURELIA, p<0.001): 6.7 months | OS ([2]; bevacizumab added to chemotherapy, AURELIA, p=0.174): 16.6 months | ORR [2, 11]: 53.3% | OS [2, 11]: 22.4 months | PFS [2, 11]: 10.4 months | ORR, single agent [2, 9]: 20% | OS, single agent [2, 9]: 17 months | HTN incidence expected with monotherapy ([7]; human, in vivo): 15–30% | maximum tolerated dose (MTD) of bevacizumab [7, 10]: 5 mg/kg Q2W
